Assays:
[1] = system: RPMI-8226; details: RPMI-8226 (Leukemia), 48 h, SRB
[2] = system: Non-Small Cell Lung Cancer subpanel; test: cells
Protocol: (§1) At the first stage of biological activity study, the antitumor activity screening of the selected compounds 2b, 2c, 2f, 2h, and 2j was performed according to the NCI DTP (USA) standard protocol at the concentrations ranging from 10^−4 to 10^−8 M toward 60 tumor cell lines. The percentage of growth was evaluated spectrophotometrically versus controls not treated with test agents after 48 h exposure and using SRB protein assay to estimate cell viability or growth. Dose–response parameters were calculated for each cell line: GI50—molar concentration of the compound that inhibits 50% net cell growth; TGI—molar concentration of the compound leading to the total inhibition; and LC50—molar concentration of the compound leading to 50% net cell death. Furthermore, mean graph midpoints (MG_MID) were calculated for each of the parameters, giving an average activity parameter over all cell lines for the tested compound. For the MG_MID calculation, insensitive cell lines were included with the highest concentration tested.
(§2) The selectivity index (SI) obtained by dividing the full panel MG-MID (mM) of the tested compound by their individual subpanel MG-MID (mM) was considered as a measure of selectivity of anticancer activity (Table 3).
(§3) Primary anticancer assay was performed on a panel of approximately sixty human tumor cell lines derived from nine neoplastic diseases, in accordance with the protocol of the Drug Evaluation Branch, National Cancer Institute, Bethesda. Tested compounds were added to the culture at a single concentration (10^−5 M) and the cultures were incubated for 48 h. End point determinations were made with a protein binding dye, sulforhodamine B (SRB). […] The percentage growth was evaluated spectrophotometrically versus controls not treated with test agents.
(§4) Dose–response parameters (GI50, TGI, LC50) were calculated for each compound. […] The drug concentration resulting in total growth inhibition (TGI) was calculated from Ti = Tz. The LC50 (concentration of drug resulting in a 50% reduction in the measured protein at the end of the drug treatment as compared to that at the beginning) indicating a net loss of cells following treatment was calculated from [(Ti − Tz)/Tz] × 100 = −50 (2). Values were calculated for each of these parameters if the level of activity was reached; however, if the effect was not reached or was excessive, the value for that parameter was expressed as more or less than the maximum or minimum concentration tested.

[3] = system: Prostate Cancer subpanel; test: cells
Protocol: as §1, §2, §3, §4

[4] = system: Renal Cancer subpanel; test: cells
Protocol: as §1, §2, §3, §4

[5] = system: Leukemia subpanel; test: cells
Protocol: as §1, §2, §3, §4

[6] = system: Breast Cancer subpanel; test: cells
Protocol: as §1, §2, §3, §4

[7] = system: Ovarian Cancer subpanel; test: cells
Protocol: as §1, §2, §3, §4

[8] = system: Colon Cancer subpanel; test: cells
Protocol: as §1, §2, §3, §4

[9] = system: MDA-MB-435; test: NCI DTP 60 cell line screen, SRB
[10] = system: A498; test: NCI DTP 60 cell line screen, SRB
[11] = system: RPMI-8226; test: cells; details: Homo sapiens, RPMI-8226, 48 h
[12] = system: K-562; test: cells; details: Homo sapiens, K562, 48 h
[13] = system: HCT-116; details: HCT-116 (Colon Cancer), 48 h, SRB
[14] = system: HCT-15; test: NCI DTP 60 cell line screen, SRB
[15] = system: NCI-H460; details: NCI-H460 (Non-Small Cell Lung Cancer), 48 h, SRB
[16] = system: OVCAR-8; test: NCI DTP 60 cell line screen, SRB
[17] = system: TK-10; test: NCI DTP 60 cell line screen, SRB
[18] = system: SNB-19; test: NCI DTP 60 cell line screen, SRB
[19] = system: EKVX; details: EKVX (Non-Small Cell Lung Cancer), 48 h, SRB
[20] = Homo sapiens, read-out: MG_MID, GI50
[21] = Homo sapiens, read-out: MG_MID, LC50
[22] = full panel MG_MID / Non-Small Cell Lung Cancer subpanel MG_MID
[23] = full panel MG_MID / Prostate Cancer subpanel MG_MID
[24] = full panel MG_MID / Renal Cancer subpanel MG_MID
[25] = full panel MG_MID / Leukemia subpanel MG_MID
[26] = full panel MG_MID / Breast Cancer subpanel MG_MID
[27] = full panel MG_MID / Ovarian Cancer subpanel MG_MID
[28] = full panel MG_MID / Colon Cancer subpanel MG_MID

SMILES: O=C1/C(=C/C(Cl)=C/c2ccc([N+](=O)[O-])cc2)SC(=S)N1/N=C\C(Cl)=C\c1ccc([N+](=O)[O-])cc1 [Compound 2c, 5-[(Z,2Z)-2-Chloro-3-(4-nitrophenyl)-2-propenylidene]-3-[(Z,2Z)-2-chloro-3-(4-nitrophenyl)-2-propenylideneamino]-2-thioxo-4-thiazolidinone]
- TGI [1]: 6.32 µM
- GI50 [2, 20]: 25.9 µM
- CC50 [2, 21]: 83 µM
- MG_MID, TGI ([2]; Non-Small Cell Lung Cancer panel mean): 44.8 µM
- SI (selectivity index), GI50 [2, 22]: 0.69
- SI (selectivity index), LC50 [2, 22]: 0.98
- SI (selectivity index), TGI [2, 22]: 0.96
- GI50 [3, 20]: 14.9 µM
- SI (selectivity index), GI50 [3, 23]: 1.21
- SI (selectivity index), LC50 [3, 23]: 1.09
- SI (selectivity index), TGI [3, 23]: 0.95
- GI50 [4, 20]: 16.9 µM
- CC50 [4, 21]: 80.1 µM
- MG_MID, TGI ([4]; Renal Cancer panel mean): 43.3 µM
- SI (selectivity index), GI50 [4, 24]: 1.07
- SI (selectivity index), LC50 [4, 24]: 1.02
- SI (selectivity index), TGI [4, 24]: 1.00
- GI50 [5, 20]: 3.83 µM
- CC50 [5, 21]: 90 µM
- MG_MID, TGI ([5]; Leukemia panel mean): 18.6 µM
- SI (selectivity index), GI50 [5, 25]: 4.70
- SI (selectivity index), LC50 [5, 25]: 0.91
- SI (selectivity index), TGI [5, 25]: 2.32
- MG_MID, TGI ([6]; Breast Cancer panel mean): 51.3 µM
- GI50 [6, 20]: 17.5 µM
- CC50 [6, 21]: 90.2 µM
- SI (selectivity index), GI50 [6, 26]: 1.03
- SI (selectivity index), LC50 [6, 26]: 0.91
- SI (selectivity index), TGI [6, 26]: 0.84
- GI50 [7, 20]: 18.2 µM
- CC50 [7, 21]: 59 µM
- MG_MID, TGI ([7]; Ovarian Cancer panel mean): 36.2 µM
- SI (selectivity index), GI50 [7, 27]: 0.99
- SI (selectivity index), LC50 [7, 27]: 1.38
- SI (selectivity index), TGI [7, 27]: 1.19
- MG_MID, TGI ([8]; Colon Cancer panel mean): 59.7 µM
- GI50 [8, 20]: 20.7 µM
- CC50 [8, 21]: 77.8 µM
- SI (selectivity index), GI50 [8, 28]: 0.87
- SI (selectivity index), LC50 [8, 28]: 1.05
- SI (selectivity index), TGI [8, 28]: 0.72
- GI50 ([9]; Homo sapiens, MDA-MB-435, 48 h): 20.3 µM
- CC50 ([9]; Homo sapiens, MDA-MB-435, 48 h, read-out: LC50): 86.3 µM
- TGI ([9]; MDA-MB-435 (Breast Cancer), 48 h, SRB): 41.9 µM
- TGI ([10]; A498 (Renal Cancer), 48 h, SRB): 29.6 µM
- GI50 ([10]; Homo sapiens, A498, 48 h): 13 µM
- CC50 ([10]; Homo sapiens, A498, 48 h, read-out: LC50): 67.3 µM
- GI50 [11]: 2380 nM
- CC50 ([11]; read-out: LC50): > 100 µM
- GI50 [12]: 3.98 µM
- CC50 ([12]; read-out: LC50): > 100 µM
- TGI [13]: 6.51 µM
- TGI ([14]; HCT-15 (Colon Cancer), 48 h, SRB): 33.0 µM
- GI50 ([14]; Homo sapiens, HCT-15, 48 h): 16.6 µM
- CC50 ([14]; Homo sapiens, HCT-15, 48 h, read-out: LC50): 65.7 µM
- TGI [15]: 32.3 µM
- GI50 ([16]; Homo sapiens, OVCAR-8, 48 h): 1980 nM
- CC50 ([16]; Homo sapiens, OVCAR-8, 48 h, read-out: LC50): 8.38 µM
- TGI ([16]; OVCAR-8 (Ovarian Cancer), 48 h, SRB): 4.08 µM
- GI50 ([17]; Homo sapiens, TK-10, 48 h): 28 µM
- CC50 ([17]; Homo sapiens, TK-10, 48 h, read-out: LC50): > 100 µM
- TGI ([17]; TK-10 (Renal Cancer), 48 h, SRB): 69.6 µM
- GI50 ([18]; Homo sapiens, SNB-19, 48 h): 48.3 µM
- CC50 ([18]; Homo sapiens, SNB-19, 48 h, read-out: LC50): > 100 µM
- TGI ([18]; SNB-19 (CNS Cancer), 48 h, SRB): > 100 µM
- TGI [19]: 47.7 µM

Reference: paper PMC8161026, “Synthesis and Anticancer Activity Evaluation of 5-[2-Chloro-3-(4-nitrophenyl)-2-propenylidene]-4-thiazolidinones” (Molecules, 2021)
